Laboratory results: US5047412A, “Alkene derivatives” (Imperial Chemical Industries PLC, priority 1985, dated 1991)

Experiments:
[1] = target: T1, blood platelet aggregation (TXA2 antagonism) (Homo sapiens, UniProt P21731); experiment: blood platelet aggregation test (test (b)); type: cell-based; settings: procedure (b), human citrated platelet-rich plasma, U46619
T1 construct: aggregating human, citrated platelet-rich plasma; endogenous in cells; host or cells: human platelets in citrated platelet-rich plasma
T1 sequence (P21731 1-343): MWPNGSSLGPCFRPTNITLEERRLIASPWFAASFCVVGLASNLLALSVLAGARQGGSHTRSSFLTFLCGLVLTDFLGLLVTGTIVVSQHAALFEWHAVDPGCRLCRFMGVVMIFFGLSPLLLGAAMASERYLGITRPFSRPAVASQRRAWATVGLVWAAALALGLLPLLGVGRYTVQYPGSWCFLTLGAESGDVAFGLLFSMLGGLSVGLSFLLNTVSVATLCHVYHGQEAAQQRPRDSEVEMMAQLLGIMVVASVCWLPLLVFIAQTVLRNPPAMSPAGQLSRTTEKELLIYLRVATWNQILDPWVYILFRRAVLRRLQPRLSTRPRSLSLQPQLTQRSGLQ
Description: (b) a blood platelet aggregation test based on that described by Born (Nature, 1962, 194, 927-929) and involving:
(i) aggregating human, citrated platelet-rich plasma by addition of the TXA2 mimetic agent U46619 so that a dose-response curve is generated;
(ii) generating a dose-response curve for U46619 stimulated platelet aggregation in the presence of increasing amounts of test compound (generally in the range, 10^-5 M to 10^-10 M); and
(iii) calculating a Kb value indicating potency of TXA2 antagonism for the test compound, averaged over several concentrations, from the calculated 50% response value for U46619 aggregation in the presence and absence of test compound; and […]

[2] = system: rabbit aortal strip (TXA2 antagonism); experiment: rabbit aortal strip model (test (a)); type: cell-based; settings: procedure (a), agonist U46619
Protocol: (a) the rabbit aortal strip model devised by Piper and Vane (Nature, 1969, 223, 29-35) using as agonist a freshly prepared sample of TXA2, generated by addition of arachidonic acid (25 μg) to citrated, platelet rich rabbit plasma (250 μl) and allowing the mixture to aggregate fully over 90 seconds before use; alternatively the TXA2 mimetic agent known as U46619 (described by R. L. Jones et alia, in "Chemistry, Biochemistry and Pharmacological Activity of Prostanoids" edited by S. M. Roberts and F. Scheinmann, at page 211, Pergamon Press, 1979) may be used as the agonist;

O=C(O)CC/C=C\C[C@@H]1CO[C@H](/C=C/c2ccccc2)O[C@@H]1c1ccccc1O (relative stereo) [Example 1, 4(Z)-6-([2,4,5-cis]-4-o-hydroxyphenyl-2(E)-styryl-1,3-dioxan-5-yl)hexenoicacid]
Kb [1]: 12 nM | pA2 [2]: 8.9
